# In EP4563579A1, “MACROCYCLIC EGFR INHIBITOR, AND PREPARATION METHOD THEREFOR AND PHARMACEUTICAL USE THEREOF” (Abbisko Therapeutics Co., Ltd., priority 2022, dated 2024):
# Key:
# Format in all cases: cell-based
# A431 WT = assay: Cell proliferation assay (CellTiter-Glo), A431 WT; conditions: Homo sapiens, A-431; A431 WT cells, 72 hour incubation, CTG readout
# Description: (§1) • DMEM Medium (Gibco, Cat#11965118) • RPMI1640 Medium (Gibco, Cat#11875119) • Fetal Bovine Serum (FBS) (GBICO, Cat#10099-141) • CellTiter-Glo® Luminescent Cell Viability Assay Kit (Promega, Cat#G7572) 96-well, Black, Clear Flat Bottom Plate (Corning®, Cat# 3603)
# (§2) • SpectraMax Multimode Microplate Reader MD, 2104-0010A; • CO2 Incubator, Thermo Scientific 3100 Series; • Biosafety Cabinet, Thermo Scientific, 1300 Series A2; • Inverted Microscope, Olympus, CKX41SF; • Siemens Refrigerator, KK25E76TI.
# (§3) • 1. Cell Culture and Inoculation: • (1) Harvest cells in a logarithmic growth phase and count the cells using a […]. Test cell viability using a trypan blue exclusion method to ensure that cell viability is above 90%. • (2) Adjust the cell concentration to desired final density; and add 90 µL of cell suspension to a 96-well plate. • (3) Incubate the cells overnight at 37°C, under 5% CO2 and 95% humidity in the 96-well plate. • 2. T0 Reference Data: • (1) Add 10 µL PBS to each well of the T0 plate containing cells. • (2) Thaw the CTG reagent and equilibrate the plate to room temperature for 30 minutes. • (3) Add an equal volume of CTG solution to each well. • (4) Lyse cells by shaking on an orbital shaker for 5 minutes. • (5) Leave the plate at room temperature for 20 minutes to stabilize the luminescence signal. • (6) Read the T0 […]. • 3. Compound Dilution and Addition • (1) Add a corresponding volume of DMSO to a corresponding compound powder according to the compound information sheet to prepare a 10 mM stock solution. • (2) Prepare 1000-fold and 3.16-fold diluted compound solutions. • (3) Dilute the 1000× diluted compound solution 100-fold with PBS to prepare a 10-fold compound solution, with a maximum concentration of 10 µM, nine concentrations and 3.16-fold dilution. Then add 10 µL of the drug solution concentration to individual wells of the 96-well plate seeded with cells. Test each compound concentration in triplicate wells, and the final DMSO concentration is 0.1%. • (4) Incubate the cells in the 96-well plate containing the drug compounds at 37°C, under 5% CO2, and 95% humidity for an additional 72 hour period prior to performing the CTG analysis. • 4. Fluorescence Signal Reading • (1) Thaw the CTG reagent and equilibrate the plate to room temperature for 30 minutes. • (2) Add an equal volume of CTG solution to each well. • (3) Lyse cells by shaking on an orbital shaker for 5 minutes. • (4) Leave the plate at room temperature for 20 minutes to stabilize the […]. • (5) Read fluorescence value. • 5. Data Processing
# (§4) Analyze the data by using GraphPad Prism 7.0 software, and use Non-linear S-curve regression to fit the dose-response curves, to calculate the IC50 values (in nM). The specific experiment results are presented in Table 1: [formula] Table 1: Biology Test Results
# [1] = tested on: Ba/F3 EGFR-L858R-T790M-C797S (LTC); assay: Cell proliferation assay (CellTiter-Glo), Ba/F3 LTC; conditions: Mus musculus, BaF3; Ba/F3 EGFR-L858R-T790M-C797S cells, 72 hour incubation, CTG readout
# Description: as §1, §2, §3, §4
# [2] = tested on: Ba/F3 EGFR-L858R-C797S (LC); assay: Cell proliferation assay (CellTiter-Glo), Ba/F3 LC; conditions: Mus musculus, BaF3; Ba/F3 EGFR-L858R-C797S cells, 72 hour incubation, CTG readout
# Description: as §1, §2, §3, §4
SMILES,IC50 (A431 WT) [nM],IC50 [1] [nM],IC50 [2] [nM]
"Cn1ncc2c1OCC1(CCCC1)Cn1nc(C#CC3CCNCC3)c3cnc(cc31)Nc1ccnc-2n1 [Example 6, 1'-methyl-3'-(piperidin-4-ylethynyl)spiro(cyclopentane-1,6'-8-oxa-3-aza-4(6,1)-pyrazolo[4,3-c]pyridina-2(2,4)-pyrimidina-1(4,5)-pyrazolacyclooctaphane)]",1360,28.3,35.6
"CN1CCC(F)(C#Cc2nn3c4cc(ncc24)Nc2ccnc(n2)-c2cnn(C)c2OCC2(CCC2)C3)CC1 [Example 12, 3'-((4-fluoro-1-methylpiperidin-4-yl)ethynyl)-1'-methyls piro(cyclobutane-1,6'-8-oxa-3-aza-4(6,1)-pyrazolo[4,3-c]pyridina-2(2,4)-pyrimidina-1 (4,5)-pyrazolacyclooctaphane)]",629,61.9,124
"Cn1ncc2c1OCC1(CCCC1)Cn1nc(N3CCC(F)(F)C3)c3cnc(cc31)Nc1ccnc-2n1 [Example 15, 3'-(3,3-difluoropyrrolidin-1-yl)-1'-methylspiro(cyclopentane-1,6'-8-oxa-3-aza-4(6, 1)-pyrazolo[4,3-c]pyridina-2(2,4)-pyrimidina-1(4,5)-pyrazolacyclooctaphane)]",1050,32.4,84.4
"CO[C@H]1CCN(c2nn3c4cc(ncc24)Nc2ccnc(n2)-c2cnn(C)c2OCC2(CCCC2)C3)C1 [Example 16, (S)-3'-(3-methoxypyrrolidin-1-yl)-1'-methylspiro(cyclopentane-1,6'-8-oxa-3-aza-4(6,1)-pyrazolo[4,3-c]pyridina-2(2,4)-pyrimidina-1(4,5)-pyrazolacyclooctaphane)]",482,13.3,23.8
"COC[C@@H]1CCN(c2nn3c4cc(ncc24)Nc2ccnc(n2)-c2cnn(C)c2OCC2(CCCC2)C3)C1 [Example 17, (R)-3'-(3-(methoxymethyl)pyrrolidin-1-yl)-1'-methyls piro(cyclopentane-1,6'-8-oxa-3-aza-4(6,1)-pyrazolo[4,3-c]pyridina-2(2,4)-pyrimidina-1(4,5)-pyrazolacyclooctaphane)]",391,7.8,32.1

# The next lines start with the values.
IC50 (A431 WT) [nM],IC50 [1] [nM],IC50 [2] [nM],SMILES
261,16.4,31,"Cn1ncc2c1OCC1(CCCC1)Cn1nc(N3CCC(NS(C)(=O)=O)C3)c3cnc(cc31)Nc1ccnc-2n1 (stereo in doubt) [Example 52, (R)-N-(1-(1'-methylspiro(cyclopentane-1,6'-8-oxa-3-aza-4(6,1)-pyrazolo[4,3-c]pyridina-2(2,4)-pyrimidina-1(4,5) -pyrazolacyclooctaphane)-3' -yl)pyrrolidin-3-yl)methanes ulfonamide]"
765,10.9,25.4,"COCC[C@@H]1CCN(c2nn3c4cc(ncc24)Nc2ccnc(n2)-c2cnn(C)c2OCC2(CCCC2)C3)C1 [Example 18, (S)-3'-(3-(2-methoxyethyl)pyrrolidin-1-yl)-1'-methylspi ro(cyclopentane-1,6'-8-oxa-3-aza-4(6,1)-pyrazolo[4,3-c]pyridina-2(2,4)-pyrimidina-1(4,5)-pyrazolacyclooctaphane)]"
771,11.3,19.5,"COCC[C@H]1CCN(c2nn3c4cc(ncc24)Nc2ccnc(n2)-c2cnn(C)c2OCC2(CCCC2)C3)C1 [Example 19, (R)-3'-(3-(2-methoxyethyl)pyrrolidin-1-yl)-1'-methyls piro(cyclopentane-1,6'-8-oxa-3-aza-4(6,1)-pyrazolo[4,3-c]pyridina-2(2,4)-pyrimidina-1(4,5)-pyrazolacyclooctaphane)]"
512,16,38,"Cn1ncc2c1OCC1(CCCC1)Cn1nc(N3CC[C@H](C(C)(C)O)C3)c3cnc(cc31)Nc1ccnc-2n1 [Example 20, (S)-2-(1-(1'-methylspiro[cyclopentane-1,6'-8-oxa-3-aza-4(6,1)-pyrazolo[4,3-c]pyridina-2(2,4)-pyrimidina-1(4,5)-pyrazolacyclooctaphane]-3'-yl)pyrrolidin-3-yl)propan-2-ol]"
